# Legend:
# Format in all cases: functional
# SNB-75 = assay: Cytotoxicity against human SNB75 cells assessed as cell growth at 10^-5 M after 48 hrs by SRB assay; conditions: SNB-75, 48 h, read-out: Activity
# MDA-MB-468 = assay: Cytotoxicity against human MDA-MB-468 cells assessed as cell growth at 10^-5 M after 48 hrs by SRB assay; conditions: MDA-MB-468, 48 h, read-out: Activity
# BT-549 = assay: Cytotoxicity against human BT549 cells assessed as cell growth at 10^-5 M after 48 hrs by SRB assay; conditions: BT-549, 48 h, read-out: Activity
# [1] = Cytotoxicity against human Hs578T cells assessed as cell growth at 10^-5 M after 48 hrs by SRB assay; conditions: Hs-578T, read-out: Activity
# MCF7 = assay: Cytotoxicity against human MCF7 cells assessed as cell growth at 10^-5 M after 48 hrs by SRB assay; conditions: MCF7, 48 h, read-out: Activity
# DU-145 = assay: Cytotoxicity against human DU145 cells assessed as cell growth at 10^-5 M after 48 hrs by SRB assay; conditions: DU-145, 48 h, read-out: Activity
# [2] = Cytotoxicity against human UO31 cells assessed as cell growth at 10^-5 M after 48 hrs by SRB assay; conditions: UO-31, 48 h, read-out: Activity
# PC-3 = assay: Cytotoxicity against human PC3 cells assessed as cell growth at 10^-5 M after 48 hrs by SRB assay; conditions: PC-3, 48 h, read-out: Activity
# TK-10 = assay: Cytotoxicity against human TK10 cells assessed as cell growth at 10^-5 M after 48 hrs by SRB assay; conditions: TK-10, 48 h, read-out: Activity
# ACHN = assay: Cytotoxicity against human ACHN cells assessed as cell growth at 10^-5 M after 48 hrs by SRB assay; conditions: read-out: Activity
# CAKI-1 = assay: Cytotoxicity against human Caki1 cells assessed as cell growth at 10^-5 M after 48 hrs by SRB assay; conditions: CAKI-1, 48 h, read-out: Activity
# A498 = assay: Cytotoxicity against human A498 cells assessed as cell growth at 10^-5 M after 48 hrs by SRB assay; conditions: A498, 48 h, read-out: Activity
# 786-0 = assay: Cytotoxicity against human 786-0 cells assessed as cell growth at 10^-5 M after 48 hrs by SRB assay; conditions: 786-0, 48 h, read-out: Activity
# OVCAR-8 = assay: Cytotoxicity against human OVCAR8 cells assessed as cell growth at 10^-5 M after 48 hrs by SRB assay; conditions: OVCAR-8, 48 h, read-out: Activity
# [3] = Cytotoxicity against human NCI-ADR-RES cells assessed as cell growth at 10^-5 M after 48 hrs by SRB assay; conditions: read-out: Activity
# SK-MEL-5 = assay: Cytotoxicity against human SK-MEL-5 cells assessed as cell growth at 10^-5 M after 48 hrs by SRB assay; conditions: SK-MEL-5, 48 h, read-out: Activity
# SK-MEL-28 = assay: Cytotoxicity against human SK-MEL-28 cells assessed as cell growth at 10^-5 M after 48 hrs by SRB assay; conditions: SK-MEL-28, 48 h, read-out: Activity
# MDA-MB-435 = assay: Cytotoxicity against human MDA-MB-435 cells assessed as cell growth at 10^-5 M after 48 hrs by SRB assay; conditions: MDA-MB-435, 48 h, read-out: Activity
# Malme-3M = assay: Cytotoxicity against human MALME-3M cells assessed as cell growth at 10^-5 M after 48 hrs by SRB assay; conditions: read-out: Activity
# SNB-19 = assay: Cytotoxicity against human SNB19 cells assessed as cell growth at 10^-5 M after 48 hrs by SRB assay; conditions: SNB-19, 48 h, read-out: Activity
# SF-539 = assay: Cytotoxicity against human SF539 cells assessed as cell growth at 10^-5 M after 48 hrs by SRB assay; conditions: SF-539, 48 h, read-out: Activity
# SF-268 = assay: Cytotoxicity against human SF268 cells assessed as cell growth at 10^-5 M after 48 hrs by SRB assay; conditions: SF-268, 48 h, read-out: Activity
# SW-620 = assay: Cytotoxicity against human SW620 cells assessed as cell growth at 10^-5 M after 48 hrs by SRB assay; conditions: SW-620, 48 h, read-out: Activity
# HCT-15 = assay: Cytotoxicity against human HCT15 cells assessed as cell growth at 10^-5 M after 48 hrs by SRB assay; conditions: HCT-15, 48 h, read-out: Activity
# HCC 2998 = assay: Cytotoxicity against human HCC2998 cells assessed as cell growth at 10^-5 M after 48 hrs by SRB assay; conditions: HCC 2998, 48 h, read-out: Activity
# HCT-116 = assay: Cytotoxicity against human HCT116 cells assessed as cell growth at 10^-5 M after 48 hrs by SRB assay; conditions: HCT-116, 48 h, read-out: Activity
# COLO 205 = assay: Cytotoxicity against human COLO205 cells assessed as cell growth at 10^-5 M after 48 hrs by SRB assay; conditions: COLO 205, 48 h, read-out: Activity
# NCI-H322M = assay: Cytotoxicity against human NCI-H322M cells assessed as cell growth at 10^-5 M after 48 hrs by SRB assay; conditions: read-out: Activity
# NCI-H226 = assay: Cytotoxicity against human NCI-H226 cells assessed as cell growth at 10^-5 M after 48 hrs by SRB assay; conditions: NCI-H226, 48 h, read-out: Activity
# HOP-92 = assay: Cytotoxicity against human HOP92 cells assessed as cell growth at 10^-5 M after 48 hrs by SRB assay; conditions: HOP-92, 48 h, read-out: Activity
# A549 = assay: Cytotoxicity against human A549 cells assessed as cell growth at 10^-5 M after 48 hrs by SRB assay; conditions: A549, 48 h, read-out: Activity
# HOP-62 = assay: Cytotoxicity against human HOP62 cells assessed as cell growth at 10^-5 M after 48 hrs by SRB assay; conditions: HOP-62, 48 h, read-out: Activity
# SR = assay: Cytotoxicity against human SR cells assessed as cell growth at 10^-5 M after 48 hrs by SRB assay; conditions: read-out: Activity
# RPMI-8226 = assay: Cytotoxicity against human RPMI8226 cells assessed as cell growth at 10^-5 M after 48 hrs by SRB assay; conditions: RPMI-8226, 48 h, read-out: Activity
# MOLT-4 = assay: Cytotoxicity against human MOLT4 cells assessed as cell growth at 10^-5 M after 48 hrs by SRB assay; conditions: MOLT-4, 48 h, read-out: Activity
# HL-60(TB) = assay: Cytotoxicity against human HL-60(TB) cells assessed as cell growth at 10^-5 M after 48 hrs by SRB assay; conditions: HL-60, 48 h, read-out: Activity
# CCRF-CEM = assay: Cytotoxicity against human CCRF-CEM cells assessed as cell growth at 10^-5 M after 48 hrs by SRB assay; conditions: read-out: Activity
Compound,growth at 10 µM (SNB-75) [%],growth at 10 µM (MDA-MB-468) [%],growth at 10 µM (BT-549) [%],growth at 10 µM [1] [%],growth at 10 µM (MCF7) [%],growth at 10 µM (DU-145) [%],growth at 10 µM [2] [%],growth at 10 µM (PC-3) [%],growth at 10 µM (TK-10) [%],growth at 10 µM (ACHN) [%],growth at 10 µM (CAKI-1) [%],growth at 10 µM (A498) [%],growth at 10 µM (786-0) [%],growth at 10 µM (OVCAR-8) [%],growth at 10 µM [3] [%],growth at 10 µM (SK-MEL-5) [%],growth at 10 µM (SK-MEL-28) [%],growth at 10 µM (MDA-MB-435) [%],growth at 10 µM (Malme-3M) [%],growth at 10 µM (SNB-19) [%],other results
C=CCn1c(C)nc2ccc(Nc3nc(Nc4ncccn4)nc4ccccc34)cc21,78.8,78.3,82.8,87.7,82.4,112,82.1,89.2,118,103,75.6,76.8,106,94.3,103,92.9,111,107,99,97.6,growth at 10 µM (SF-539): 103%; growth at 10 µM (SF-268): 94.8%; growth at 10 µM (SW-620): 100%; growth at 10 µM (HCT-15): 111%; growth at 10 µM (HCC 2998): 106%; growth at 10 µM (HCT-116): 94.2%; growth at 10 µM (COLO 205): 102%; growth at 10 µM (NCI-H322M): 100%; growth at 10 µM (NCI-H226): 92.2%; growth at 10 µM (HOP-92): 70.5%; growth at 10 µM (A549): 90.3%; growth at 10 µM (HOP-62): 84.8%; growth at 10 µM (SR): 121%; growth at 10 µM (RPMI-8226): 70.7%; growth at 10 µM (MOLT-4): 97.2%; growth at 10 µM (HL-60(TB)): 94%; growth at 10 µM (CCRF-CEM): 84.8%
C=CCn1c(C)nc2cc(Nc3nc(NCCO)nc4ccccc34)ccc21,76.4,53.5,92.5,77.5,72.2,98.8,72.4,69.2,118,90.5,93,55.4,89.1,73.6,97.7,75.4,101,92.1,98.6,90.2,growth at 10 µM (SF-539): 94.8%; growth at 10 µM (SF-268): 90.9%; growth at 10 µM (SW-620): 68.2%; growth at 10 µM (HCT-15): 105%; growth at 10 µM (HCC 2998): 89%; growth at 10 µM (HCT-116): 64%; growth at 10 µM (COLO 205): 41.9%; growth at 10 µM (NCI-H322M): 91.3%; growth at 10 µM (NCI-H226): 78.8%; growth at 10 µM (HOP-92): 57.9%; growth at 10 µM (A549): 92.3%; growth at 10 µM (HOP-62): 83.3%; growth at 10 µM (SR): 68.8%; growth at 10 µM (RPMI-8226): 63.4%; growth at 10 µM (MOLT-4): 56.7%; growth at 10 µM (HL-60(TB)): 93.8%; growth at 10 µM (CCRF-CEM): 81.9%
C=CCn1c(C)nc2ccc(Nc3nc(Sc4ccc(N)cc4)nc4ccccc34)cc21,98.2,106,87.9,98.1,93.2,114,89.5,81.1,107,101,90.5,48.5,102,63.7,97.8,84.1,104,96.9,123,93.2,growth at 10 µM (SF-539): 108%; growth at 10 µM (SF-268): 109%; growth at 10 µM (SW-620): 108%; growth at 10 µM (HCT-15): 96.5%; growth at 10 µM (HCC 2998): 103%; growth at 10 µM (HCT-116): 93.2%; growth at 10 µM (COLO 205): 121%; growth at 10 µM (NCI-H322M): 102%; growth at 10 µM (NCI-H226): 109%; growth at 10 µM (HOP-92): 61.1%; growth at 10 µM (A549): 89.8%; growth at 10 µM (HOP-62): 104%; growth at 10 µM (SR): 90.8%; growth at 10 µM (RPMI-8226): 59.8%; growth at 10 µM (MOLT-4): 88.2%; growth at 10 µM (HL-60(TB)): 98.8%; growth at 10 µM (CCRF-CEM): 65.5%

# From ChEMBL document CHEMBL3112450, “Synthesis and in vitro antitumor evaluation of primary amine substituted quinazoline linked benzimidazole” (Bioorg Med Chem Lett, 2014)
